Laboratory results: patent publication US20260201008A1, “SECRETIN-DERIVED GLP1R SELECTIVE AGONISTS” (GUBRA A/S, priority 2023, published 2026)
Like-named read-outs stand apart in the source and are kept apart here. Numbered stars: 1 amine (or outer) side, 2 acyl side, 3 side chain; on linkers, the order of the positions; unused ones are H or OH. Square brackets hold non-standard residues; d marks the D form. Side chains are listed from the residue outwards. Peptide text beside a SMILES is read from it. * marks the point of attachment. C20 diacid = O=C(O)CCCCCCCCCCCCCCCCCCC(=O)*; γGlu = O=C(O)[C@H](CCC(=O)[*:2])N[*:1]; AEEA = NCCOCCOCC(=O)O; Aib = CC(C)(N)C(=O)O

Assays:
[1] = Fibril formation of crude library peptides (Thioflavin T); format: physicochemical; parameters: key: average ThT fluorescence emission at 480 nm (ex 450 nm), raw units; settings: Physical stability of peptides
Method in brief: (§1)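 Crude peptides at 267 μM in 50 mM sodium acetate pH 4.0 or 50 mM sodium phosphate pH 7.0, pre-incubated 1-2 h at room temperature, then 4 μM final ThT added. Turbidity read first as A600. ThT fluorescence (ex 450/em 480 nm) read every 10 min for 72 h at 40° C, with 5 min shaking before each read; fibril formation = average emission.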

GLP1R = GLP1R (Homo sapiens, UniProt P43220); assay: hGLP1R potency, cAMP accumulation in CHO-K1 cells stably overexpressing hGLP1R; format: cell-based; parameters: host or cells: CHO-K1; settings: for Selectivity: SCTR EC50/GLP1R EC50 ratio; for EC50: cAMP accumulation; for SCTR EC50/GLP1R EC50 ratio: cAMP accumulation in CHO-K1 cells
Method in brief: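 CHO-K1 cells stably expressing hGLP1R (2000/well) in DPBS with 0.05% casein and 0.5 mM IBMX were stimulated 30 min at room temperature with graded compound doses; human GLP-1(7-36) served as positive control. cAMP was read by HTRF after 1 h; EC50 came from variable-slope sigmoid fits (purified peptides: 11-point 3-fold, n=2).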

[2] = Turbidity of crude library peptides (absorbance at 600 nm); format: physicochemical; settings: Physical stability of peptides
Method in brief: as §1

SCTR = SCTR (Homo sapiens, UniProt P47872); assay: hSCTR potency, cAMP accumulation in CHO-K1 cells stably overexpressing hSCTR; format: cell-based; parameters: alternatively Euroscreen ES-712-AF; FAST-0161L; host or cells: CHO-K1; settings: cAMP accumulation
Method in brief: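 Cells plated at 2000/well in DPBS with 0.05% casein and 0.5 mM IBMX, stimulated 30 min at room temperature with graded compound doses; human secretin as positive control. cAMP read by TR-FRET after 1 h. Purified peptides tested at 11 3-fold dilutions, n=2; EC50 by variable-slope sigmoid fit.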

[3] = CHO-K1 cells overexpressing hGLP1R, read-out: pEC50 hGLPR1 (converted)
[4] = CHO-K1 cells overexpressing hSCTR, read-out: pEC50 hSCTR (converted)
[5] = CHO-K1 cells overexpressing hGLP1R, read-out: hGLP1R pEC50 (converted)
[6] = selectivity for hGLP1R over hSCTR
[7] = CHO-K1 cells overexpressing hSCTR, read-out: hSCTR pEC50 (converted)

Chain of GLP1R (P43220 24-463): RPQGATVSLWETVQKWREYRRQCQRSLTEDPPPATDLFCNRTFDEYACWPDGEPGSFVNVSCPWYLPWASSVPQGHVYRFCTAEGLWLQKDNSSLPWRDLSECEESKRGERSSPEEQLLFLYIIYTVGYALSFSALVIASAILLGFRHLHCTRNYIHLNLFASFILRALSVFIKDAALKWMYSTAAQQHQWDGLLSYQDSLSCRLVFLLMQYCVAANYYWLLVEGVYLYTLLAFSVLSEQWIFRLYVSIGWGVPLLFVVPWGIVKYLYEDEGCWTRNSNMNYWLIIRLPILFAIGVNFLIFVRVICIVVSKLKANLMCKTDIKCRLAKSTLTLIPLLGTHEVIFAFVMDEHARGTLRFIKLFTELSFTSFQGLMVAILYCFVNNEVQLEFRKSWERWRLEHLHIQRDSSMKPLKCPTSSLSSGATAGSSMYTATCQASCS
Chain of SCTR (P47872 23-440): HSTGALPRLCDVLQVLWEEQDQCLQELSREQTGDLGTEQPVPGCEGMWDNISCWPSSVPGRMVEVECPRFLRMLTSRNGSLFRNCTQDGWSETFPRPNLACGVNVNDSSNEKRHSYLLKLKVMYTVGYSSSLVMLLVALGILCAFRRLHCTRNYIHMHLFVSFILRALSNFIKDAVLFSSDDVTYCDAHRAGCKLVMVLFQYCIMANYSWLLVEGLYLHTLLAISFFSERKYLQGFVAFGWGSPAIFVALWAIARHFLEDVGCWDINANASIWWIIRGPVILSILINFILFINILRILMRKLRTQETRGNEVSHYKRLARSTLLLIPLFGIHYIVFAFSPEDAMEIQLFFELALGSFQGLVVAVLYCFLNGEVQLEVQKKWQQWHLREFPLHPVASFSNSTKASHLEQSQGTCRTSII

`CC(C)C[C@H](NC(=O)[C@H](Cc1ccccc1)NC(=O)[C@H](CCCNC(=N)N)NC(=O)[C@H](CCC(N)=O)NC(=O)[C@@H](NC(=O)[C@H](C)NC(=O)[C@H](C)NC(=O)[C@@H](NC(=O)[C@H](CCC(=O)O)NC(=O)[C@H](CCCCNC(=O)COCCOCCNC(=O)COCCOCCNC(=O)CC[C@H](NC(=O)CCCCCCCCCCCCCCCCCCC(=O)O)C(=O)O)NC(=O)[C@H](CC(C)C)NC(=O)[C@H](CCC(=O)O)NC(=O)[C@H](CO)NC(=O)[C@@H](NC(=O)[C@H](CC(=O)O)NC(=O)[C@H](CO)NC(=O)[C@@H](NC(=O)[C@H](Cc1ccccc1)NC(=O)[C@@H](NC(=O)CNC(=O)[C@H](CCC(=O)O)NC(=O)C(C)(C)NC(=O)[C@@H](N)Cc1c[nH]cn1)[C@@H](C)O)[C@@H](C)O)C(C)C)[C@@H](C)O)[C@@H](C)O)C(=O)N[C@@H](CCC(=O)O)C(=O)N[C@@H](Cc1c[nH]cn1)C(=O)N[C@@H](CC(C)C)C(=O)N[C@H](C(N)=O)C(C)C` [compound 54] (H-H[Aib]EGTFTSDVSELK([AEEA-AEEA-γGlu-C20 diacid])ETAATQRFLEHLV-NH2) gave a Fibril formation [1] of 7756, a Selectivity (GLP1R) of 11020 and an EC50 (GLP1R; [3]) of 0.0126 nM. The “Turbidity (pH 7)” value [2] was 0.09 and the EC50 (SCTR; [4]) was 126 nM.
In the case of `CC[C@H](C)[C@H](NC(=O)[C@H](Cc1ccccc1)NC(=O)[C@H](CCCNC(=N)N)NC(=O)[C@H](CCC(N)=O)NC(=O)[C@H](CC(C)C)NC(=O)[C@H](C)NC(=O)[C@H](C)NC(=O)CNC(=O)[C@H](CCC(=O)O)NC(=O)[C@H](CC(C)C)NC(=O)[C@H](CC(C)C)NC(=O)[C@@H](NC(=O)[C@H](CO)NC(=O)[C@@H](NC(=O)[C@H](CC(=O)O)NC(=O)[C@H](CO)NC(=O)[C@@H](NC(=O)[C@H](Cc1ccccc1)NC(=O)[C@@H](NC(=O)CNC(=O)[C@H](CCC(=O)O)NC(=O)C(C)(C)NC(=O)[C@@H](N)Cc1c[nH]cn1)[C@@H](C)O)[C@@H](C)O)[C@@H](C)CC)C(C)C)C(=O)N[C@@H](CCC(N)=O)C(=O)N[C@@H](Cc1c[nH]c2ccccc12)C(=O)N[C@@H](CC(C)C)C(=O)N[C@H](C(N)=O)C(C)C` [compound 116] (H-H[Aib]EGTFTSDISVLLEGAALQRFIQWLV-NH2), the Fibril formation [1] is reported as 202498, the EC50 (GLP1R; [5]) is reported as 0.0501 nM and the “SCTR EC50/GLP1R EC50 ratio” value (GLP1R; [6]) is reported as 1422. The “Turbidity (pH 7)” value [2] was 0.42 and the EC50 (SCTR; [7]) was 79.4 nM.
With `CC[C@H](C)[C@H](NC(=O)[C@H](Cc1ccccc1)NC(=O)[C@H](CCCNC(=N)N)NC(=O)[C@H](CCC(N)=O)NC(=O)[C@H](CC(C)C)NC(=O)[C@H](C)NC(=O)[C@H](C)NC(=O)CNC(=O)[C@H](CCC(=O)O)NC(=O)[C@H](CC(C)C)NC(=O)[C@H](CC(C)C)NC(=O)[C@H](Cc1ccc(O)cc1)NC(=O)[C@H](CO)NC(=O)[C@@H]1CCCN1C(=O)[C@H](CC(=O)O)NC(=O)[C@H](CO)NC(=O)[C@@H](NC(=O)[C@H](Cc1ccccc1)NC(=O)[C@@H](NC(=O)CNC(=O)[C@H](CCC(=O)O)NC(=O)C(C)(C)NC(=O)[C@@H](N)Cc1c[nH]cn1)[C@@H](C)O)[C@@H](C)O)C(=O)N[C@@H](CCC(N)=O)C(=O)N[C@@H](Cc1c[nH]c2ccccc12)C(=O)N[C@@H](CC(C)C)C(=O)N[C@H](C(N)=O)C(C)C` [compound 128] (H-H[Aib]EGTFTSDPSYLLEGAALQRFIQWLV-NH2) the Fibril formation [1] was 6144, the EC50 (GLP1R; [5]) was 15.8 nM and the “SCTR EC50/GLP1R EC50 ratio” value (GLP1R; [6]) was 1467. The “Turbidity (pH 7)” value [2] was 0.20 and the EC50 (SCTR; [7]) was 20000 nM.
For `CC[C@H](C)[C@H](NC(=O)[C@H](Cc1ccccc1)NC(=O)[C@H](CCCNC(=N)N)NC(=O)[C@H](CCC(N)=O)NC(=O)[C@H](CC(C)C)NC(=O)[C@H](C)NC(=O)[C@H](C)NC(=O)CNC(=O)[C@H](CCC(=O)O)NC(=O)[C@H](CC(C)C)NC(=O)[C@H](CC(C)C)NC(=O)[C@@H](NC(=O)[C@H](CO)NC(=O)[C@H](Cc1c[nH]c2ccccc12)NC(=O)[C@H](CC(=O)O)NC(=O)[C@H](CO)NC(=O)[C@@H](NC(=O)[C@H](Cc1ccccc1)NC(=O)[C@@H](NC(=O)CNC(=O)[C@H](CCC(=O)O)NC(=O)C(C)(C)NC(=O)[C@@H](N)Cc1c[nH]cn1)[C@@H](C)O)[C@@H](C)O)C(C)C)C(=O)N[C@@H](CCC(N)=O)C(=O)N[C@@H](Cc1c[nH]c2ccccc12)C(=O)N[C@@H](CC(C)C)C(=O)N[C@H](C(N)=O)C(C)C` [compound 188] (H-H[Aib]EGTFTSDWSVLLEGAALQRFIQWLV-NH2), the Fibril formation [1] was 260000, the EC50 (GLP1R; CHO-K1 cells stably overexpressing hGLP1R, read-out: hGLP1R potency (pEC50) (converted)) was 0.0794 nM and the “SCTR EC50/GLP1R EC50 ratio” value (GLP1R; selectivity ratio, hSCTR vs hGLP1R) was 468. The “Turbidity (pH 7)” value [2] was 0.85 and the EC50 (SCTR; CHO-K1 cells stably overexpressing hSCTR, read-out: hSCTR potency (pEC50) (converted)) was 31.6 nM.
With `CC(C)C[C@H](NC(=O)[C@H](Cc1ccccc1)NC(=O)[C@H](CCCNC(=N)N)NC(=O)[C@H](CCC(N)=O)NC(=O)C(C)(C)NC(=O)[C@H](C)NC(=O)[C@H](C)NC(=O)[C@@H](NC(=O)[C@H](CCC(=O)O)NC(=O)[C@H](CCCCNC(=O)COCCOCCNC(=O)COCCOCCNC(=O)CC[C@H](NC(=O)CCCCCCCCCCCCCCCCCCC(=O)O)C(=O)O)NC(=O)[C@H](CC(C)C)NC(=O)[C@H](CCCNC(=N)N)NC(=O)[C@H](CO)NC(=O)[C@@H](NC(=O)[C@H](CC(=O)O)NC(=O)[C@H](CO)NC(=O)[C@@H](NC(=O)[C@H](Cc1ccccc1)NC(=O)[C@@H](NC(=O)CNC(=O)[C@H](CCC(=O)O)NC(=O)C(C)(C)NC(=O)[C@@H](N)Cc1c[nH]cn1)[C@@H](C)O)[C@@H](C)O)C(C)C)[C@@H](C)O)C(=O)N[C@@H](CCC(=O)O)C(=O)N[C@@H](Cc1c[nH]cn1)C(=O)N[C@@H](CC(C)C)C(=O)N[C@H](C(N)=O)C(C)C` [compound 85] (H-H[Aib]EGTFTSDVSRLK([AEEA-AEEA-γGlu-C20 diacid])ETAA[Aib]QRFLEHLV-NH2) the Fibril formation [1] was 19223, the EC50 (GLP1R; [5]) was 0.126 nM and the “SCTR EC50/GLP1R EC50 ratio” value (GLP1R; [6]) was 12682. The “Turbidity (pH 7)” value [2] was 0.09 and the EC50 (SCTR; [7]) was 1580 nM.
`CC(C)C[C@H](NC(=O)[C@H](Cc1ccccc1)NC(=O)[C@H](CCCNC(=N)N)NC(=O)[C@H](CCC(N)=O)NC(=O)[C@H](CCC(N)=O)NC(=O)[C@H](C)NC(=O)[C@H](C)NC(=O)[C@@H](NC(=O)[C@H](CCC(=O)O)NC(=O)[C@H](CCCCNC(=O)COCCOCCNC(=O)COCCOCCNC(=O)CC[C@H](NC(=O)CCCCCCCCCCCCCCCCCCC(=O)O)C(=O)O)NC(=O)[C@H](CC(C)C)NC(=O)[C@H](CCCNC(=N)N)NC(=O)[C@H](CO)NC(=O)[C@@H](NC(=O)[C@H](CC(=O)O)NC(=O)[C@H](CO)NC(=O)[C@@H](NC(=O)[C@H](Cc1ccccc1)NC(=O)[C@@H](NC(=O)CNC(=O)[C@H](CCC(=O)O)NC(=O)C(C)(C)NC(=O)[C@@H](N)Cc1c[nH]cn1)[C@@H](C)O)[C@@H](C)O)C(C)C)[C@@H](C)O)C(=O)N[C@@H](CCC(=O)O)C(=O)N[C@@H](Cc1c[nH]cn1)C(=O)N[C@@H](CC(C)C)C(=O)N[C@H](C(N)=O)C(C)C` [compound 21] (H-H[Aib]EGTFTSDVSRLK([AEEA-AEEA-γGlu-C20 diacid])ETAAQQRFLEHLV-NH2) showed a Fibril formation [1] of 193729, a Selectivity (GLP1R) of 17906 and an EC50 (GLP1R; [3]) of 0.0126 nM. The “Turbidity (pH 7)” value [2] was 0.08 and the EC50 (SCTR; [4]) was 200 nM.
